{"source": "paper PMC4841536", "about": "“Characterization of the Anti-HCV Activities of the New Cyclophilin Inhibitor STG-175” (PLoS ONE, 2016)", "key": {"[1]": {"tested_on": "HCV (JFH-1) in Huh7.5.1 cells", "assay": "Mono-infection, HCV core ELISA", "format": "cell-based, hepatitis C virus", "conditions": "both 0.5 and 5 μM, added together with virus, 12 days", "source_text": "(§1) For mono-infections: a) human hepatoma Huh7.5.1 cells were infected with HCV (JFH-1) and viral replication was quantified by HCV core ELISA (Ortho HCV antigen ELISA kit; Ortho Clinical Diagnostics, Waco Chemicals, Inc. or HCV Core ELISA, XpressBio); b) sodium-taurocholate co-transporting polypeptide (NTCP)-positive Huh7 cells were infected with hepatitis B virus (HBV) AD38 (produced from HepAD38 cells) and viral replication was quantified by HBV HBeAg ELISA; and c) human (peripheral blood monocytic cells (PBMCs) were infected with HIV-1 (JR-CSF) and viral replication was quantified by HIV-1 capsid/p24 ELISA. PBMCs were isolated as described previously. The Scripps Research Institute Normal Blood Donor Service (TSRI NBDS) provides TSRI investigators who have Human Subjects Committee-approved protocols with a source of normal blood for their research. Donors are assured of a controlled clinical setting for their blood to be drawn by licensed phlebotomists, and investigators are assured that the donors whose specimens they obtain through the service have been screened upon entry into the program and annually thereafter for a CBC, Hepatitis B and C and HIV-1. Hemoglobin determinations at every donation protect the donor from phlebotomy-induced anemia. […]"}, "[2]": {"tested_on": "HBV AD38 in NTCP-Huh7 cells", "assay": "Mono-infection, HBV HBeAg ELISA", "format": "cell-based, hepatitis B virus", "conditions": "0.5 and 5 μM, added together with virus, 12 days", "source_text": "as §1"}, "[3]": {"tested_on": "HIV-1 in mixed PBMCs, NTCP-Huh7 and Huh7.5.1 cells", "assay": "Dual/triple co-infection in cell co-cultures, HIV-1 readout", "format": "cell-based"}, "[4]": {"tested_on": "D320E/Y321N NS5A Con1 GT1b replicon", "assay": "microbe, parasite or virus in culture", "format": "cell-based, hepatitis C virus", "conditions": "for EC50: Hepatitis C virus, GT1B", "source_text": "(§2) The GT1b subgenomic firefly luciferase reporter replicon pFK-I389/NS3–3 was provided by R. Bartenschlager. The GT1B subgenomic NS3, NS5A and NS5B mutants were created via homologous recombination using the In-Fusion HD Cloning kit (Clontech) as we described previously. […] The in vitro transcription of wild-type and mutant Con1 RNA was accomplished using the T7 MEGAscript kit (Ambion) by following the manufacturer’s instructions. In vitro-transcribed RNAs were introduced into Huh7.5.1 cells by electroporation. Trypsinized cells were washed twice and resuspended in phosphate-buffered saline (PBS) (calcium-free and magnesium-free) at 1x 10^7 cells per ml. Ten micrograms of RNA for each mutant was mixed with 0.4 mL of cells in a 4-mm cuvette, and a Bio-Rad Gene Pulser system was used to deliver a single pulse at 0.27 kV, 100 ohms, and 960 μF. Cells were then plated in 12-well dishes. RNA transfection efficiency and HCV subgenomic replication were assessed by reverse transcription-quantitative PCR (RT-qPCR) and presented as genome equivalents (GE) per microgram of total RNA as described previously. We measured by RT-qPCR the replication of wild-type, STG-175-, NS5Ai-, NS3i- and NS5Bi-resistant mutants in the presence of increasing concentrations of SGT-175, daclatasvir, telaprevir, boceprevir and sofosbuvir over a period of 8 days.\n(§3) D320E and D320E/Y321N NS5A substitutions were introduced into wild-type Con1 GT1 replicon as we described previously. Con1-NS5A-D320E, and Con1-NS5A-D320E/Y321N were generated using the following forward and reverse phosphorylated (p) primer sets, respectively: (p)[…] and (p)[…], and (p)[…] and (p)[…]. PCR products were circularized with Quick T4 DNA ligase (NEB) for 5 min and transformed into NEB 10-beta competent cells. The NS5A gene was sequenced to confirm the introduced substitutions.\n(§4) Fig 3 Replicon clearance, replication rebound and resistance analyses. […] Then drugs were removed to allow viral replication rebound to occur. At each passage, samples of cells were collected, RNA extracted and analyzed by RT-PCR for HCV RNA levels. B. Emergence of resistance: Con1 replicon Huh-7 cells were passaged 22 times in the absence or presence of STG-175 or selected DAAs. At each passage, sample of cells were collected, RNA extracted and analyzed by RT-PCR for HCV RNA levels. C. […] Data are expressed as number of HCV RNA copies per cell. […] Data are expressed as mean of relative light units and calculated EC50s are presented. […] E. Degree of resistance of D320E and Y321N Con1 variants: Left panel. Wild-type (WT), D320E and D320/Y321N NS5A Con1 RNA were electroporated into Huh7.5.1 cells and replication monitored over 8 days by quantifying the levels of intracellular HCV RNA. Right panel. Same as just above except that increasing concentrations of STG-175 were added at the time of the electroporation. […] STG-175 is taken as the substance from the printed x-axis title 'STG-175 in Log nM'.\n(§5) To determine whether the D320E and Y321N substitutions truly render HCV resistant to STG-175, they were introduced into wild-type Con1 replicon as we described previously. Introduction of the substitutions was verified by sequencing."}, "[5]": {"tested_on": "D320E NS5A Con1 GT1b replicon", "assay": "microbe, parasite or virus in culture", "format": "cell-based, hepatitis C virus", "conditions": "for EC50: Hepatitis C virus, GT1B", "source_text": "as §2, §3, §4, §5"}}, "note": "Values joined by “and” are separate entries in the source; they are usually repeats but may differ in a detail not shown here. Equal values may be shown once. Read-outs that look alike come from different tables or passages of the source."}
{"smiles": "CC=CCC(C)C(O)C1C(=O)NC(CC)C(=O)N(C)C(CSCCCCO)C(=O)N(C)C(CC(C)(C)O)C(=O)NC(C(C)C)C(=O)N(C)C(CC(C)C)C(=O)NC(C)C(=O)NC(C)C(=O)N(C)C(CC(C)C)C(=O)N(C)C(CC(C)C)C(=O)N(C)C(C(C)C)C(=O)N1C", "note": "(stereo not drawn) [STG-175]", "values": [{"measurement": "HCV infection (HCV core ELISA)", "setting": "[1]", "result": "totally blocked"}, {"measurement": "HBV infection (HBeAg ELISA)", "setting": "[2]", "result": "significantly reduced"}, {"measurement": "HIV-1 infection in co-infection", "setting": "[3]; STG-175 added together with virus", "result": "totally blocked"}, {"measurement": "established HIV-1 infection in co-infection", "setting": "[3]; added 3 days post-infection and then every 3 days", "result": "almost totally aborted"}, {"measurement": "EC50", "setting": "[4]; Huh-7.5.1, 144 h, read-out: EC50, D320E/Y321N replicon", "result": 75, "unit": "nM"}, {"measurement": "EC50", "setting": "[4]; Huh-7.5.1, 192 h, read-out: EC50, D320E/Y321N replicon", "result": 102, "unit": "nM"}, {"measurement": "EC50", "setting": "[4]; Huh-7.5.1, 192 h, read-out: EC50 D320E/Y321N NS5A", "result": 77.9, "unit": "nM"}, {"measurement": "fold more resistant than wild-type replicon, D320E/Y321N", "setting": "[4]; day 6", "result": 2.1, "unit": "fold"}, {"measurement": "fold more resistant than wild-type replicon, D320E/Y321N", "setting": "[4]; day 8", "result": 2.9, "unit": "fold"}, {"measurement": "fold resistance conferred by NS5A D320E and Y321N substitutions (summary)", "setting": "[4]; variants emerged under STG-175 pressure", "result": "~ 2 fold and 2-3 fold"}, {"measurement": "EC50", "setting": "[5]; Huh-7.5.1, 144 h, read-out: EC50, D320E replicon", "result": 61.6, "unit": "nM"}, {"measurement": "EC50", "setting": "[5]; Huh-7.5.1, 192 h, read-out: EC50, D320E replicon", "result": 83.2, "unit": "nM"}, {"measurement": "EC50", "setting": "[5]; Huh-7.5.1, 192 h, read-out: EC50 D320E NS5A", "result": 62.8, "unit": "nM"}, {"measurement": "fold more resistant than wild-type replicon, D320E", "setting": "[5]; day 6", "result": 1.7, "unit": "fold"}, {"measurement": "fold more resistant than wild-type replicon, D320E", "setting": "[5]; day 8", "result": 2.4, "unit": "fold"}]}
